From patent publication US9695198B2, “Factor IXa inhibitors” (MERCK SHARP & DOHME CORP., priority 2012, dated 2017)

Biological target: Factor IXa (Homo sapiens, UniProt P00740)
Test: Determination of inhibitory activity against Factor IXa (cleavage of fluorescent peptide CH3SO2-D-CHG-Gly-Arg-AFC)
Assay type: biochemical
Conditions: Factor IXa Inhibition table; low enzyme format; read-out: FIXa Low Enzyme
Procedure: Determination of Inhibitory Activity Against Factor IXa
Formation of a clot to stem bleeding at a site of blood vessel injury involves the coordinated activity of a group of plasma proteins that initiate and propagate fibrin formation and subsequently protect fibrin from premature degradation. Factor IX is a key component of the plasma system that forms a fibrin clot at a site of vascular injury. The activity of Factor IXa is measured by monitoring the cleavage of the fluorescent peptide, CH3SO2-D-CHG-Gly-Arg-AFC.AcOH (“CHG” is cyclohexyl-glycine and “AFC” is trifluoro aminomethyl coumarin). Factor IXa cleaves the amide bond between Arg and AFC, thereby releasing the AFC fluorophore. The free AFC can be detected with a fluorescence detector at an excitation wavelength of 405 nm and emission wavelength of 510 nm.

Chain of Factor IXa (P00740 227-461 limits assumed): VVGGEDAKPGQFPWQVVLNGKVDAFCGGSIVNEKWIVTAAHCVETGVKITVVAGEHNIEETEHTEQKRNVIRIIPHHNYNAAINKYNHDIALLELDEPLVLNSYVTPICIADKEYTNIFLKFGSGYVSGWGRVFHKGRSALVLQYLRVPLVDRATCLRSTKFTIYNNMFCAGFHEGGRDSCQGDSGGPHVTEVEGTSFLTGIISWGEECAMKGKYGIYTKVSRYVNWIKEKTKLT
Chain of Factor IXa (P00740 47-191 partner limits assumed): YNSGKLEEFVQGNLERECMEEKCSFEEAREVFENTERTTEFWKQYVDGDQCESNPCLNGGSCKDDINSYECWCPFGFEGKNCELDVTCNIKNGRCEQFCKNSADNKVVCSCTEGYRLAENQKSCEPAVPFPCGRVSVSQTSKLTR

| SMILES | IC50 [nM] |
| --- | --- |
| Nc1noc2c1ccc1[nH]c([C@H](O)[C@H]3OCCN(c4ccn(-c5ccncc5)n4)C3=O)nc(=O)c12 [Example 1, 3-Amino-7-((S)-hydroxy((R)-3-oxo-4-(1-(pyridin-4-yl)-1H-pyrazol-3-yl)morpholin-2-yl)methyl)isoxazolo[5,4-f]quinazolin-9(6H)-one] | 14.5 |
| Nc1nsc2c1ccc1[nH]c([C@H](O)[C@H]3OCCN(c4ccn(-c5ccncc5)n4)C3=O)nc(=O)c12 [Example 2, (R)-2-((S)-(3-Amino-9-oxo-6,9-dihydroisothiazolo[5,4-f]quinazolin-7-yl)(hydroxy)methyl)-4-(1-(pyridin-4-yl)-1H-pyrazol-3-yl)morpholin-3-one] | 4.65 |
| Cc1cc(N2CCO[C@H]([C@@H](O)c3nc(=O)c4c(ccc5c(N)nsc54)[nH]3)C2=O)nn1-c1ccncc1 [Example 3, (R)-2-((S)-(3-Amino-9-oxo-6,9-dihydroisothiazolo[5,4-f]quinazolin-7-yl)(hydroxy)methyl)-4-(5-methyl-1-(pyridin-4-yl)-1H-pyrazol-3-yl)morpholin-3-one] | 11.3 |
| Cc1cc(N2CCO[C@H]([C@@H](O)c3nc(=O)c4c(ccc5c(N)nsc54)[nH]3)C2=O)nn1-c1cccnc1 [Example 4, (R)-2-((S)-(3-Amino-9-oxo-6,9-dihydroisothiazolo[5,4-f]quinazolin-7-yl)(hydroxy)methyl)-4-(5-methyl-1-(pyridin-3-yl)-1H-pyrazol-3-yl)morpholin-3-one] | 58.6 |
| COc1cc(-n2ccc(N3CCO[C@H]([C@@H](O)c4nc(=O)c5c(ccc6c(N)nsc65)[nH]4)C3=O)n2)ccn1 [Example 5, (R)-2-((S)-(3-Amino-9-oxo-6,9-dihydroisothiazolo[5,4-f]quinazolin-7-yl)(hydroxy)methyl)-4-(1-(2-methoxypyridin-4-yl)-1H-pyrazol-3-yl)morpholin-3-one] | 10.8 |
| COc1cc(-n2nc(N3CCO[C@H]([C@@H](O)c4nc(=O)c5c(ccc6c(N)nsc65)[nH]4)C3=O)cc2C)ccn1 [Example 6, (R)-2-((S)-(3-Amino-9-oxo-6,9-dihydroisothiazolo[5,4-f]quinazolin-7-yl)(hydroxy)methyl)-4-(1-(2-methoxypyridin-4-yl)-5-methyl-1H-pyrazol-3-yl)morpholin-3-one] | 58.2 |
| Nc1nsc2c1ccc1[nH]c([C@H](O)[C@H]3OCCN(c4ccn(-c5ccnc(C(F)(F)F)c5)n4)C3=O)nc(=O)c12 [Example 7, (R)-2-((S)-(3-Amino-9-oxo-6,9-dihydroisothiazolo[5,4-f]quinazolin-7-yl)(hydroxy)methyl)-4-(1-(2-(trifluoromethyl)pyridin-4-yl)-1H-pyrazol-3-yl)morpholin-3-one] | 9.37 |
| Cc1cc(N2CCO[C@H]([C@@H](O)c3nc(=O)c4c(ccc5c(N)nsc54)[nH]3)C2=O)nn1-c1ccnc(C(F)(F)F)c1 [Example 8, (R)-2-((S)-(3-Amino-9-oxo-6,9-dihydroisothiazolo[5,4-f]quinazolin-7-yl)(hydroxy)methyl)-4-(5-methyl-1-(2-(trifluoromethyl)pyridin-4-yl)-1H-pyrazol-3-yl)morpholin-3-one] | 17.8 |
| Nc1nsc2c1ccc1[nH]c([C@H](O)[C@H]3OCCN(c4ccn(-c5ccnnc5)n4)C3=O)nc(=O)c12 [Example 9, (R)-2-((S)-(3-Amino-9-oxo-6,9-dihydroisothiazolo[5,4-f]quinazolin-7-yl)(hydroxy)methyl)-4-(1-(pyridazin-4-yl)-1H-pyrazol-3-yl)morpholin-3-one] | 1.87 |
| Nc1nsc2c1ccc1[nH]c([C@H](O)[C@H]3OCCN(c4ccn(-c5ccc(=O)n(C(F)F)c5)n4)C3=O)nc(=O)c12 [Example 10, (R)-2-((S)-(3-Amino-9-oxo-6,9-dihydroisothiazolo[5,4-f]quinazolin-7-yl)(hydroxy)methyl)-4-(1-(1-(difluoromethyl)-6-oxo-1,6-dihydropyridin-3-yl)-1H-pyrazol-3-yl)morpholin-3-one] | 3.04 |
| Cc1cc(N2CCO[C@H]([C@@H](O)c3nc(=O)c4c(ccc5c(N)nsc54)[nH]3)C2=O)nn1-c1ccc(F)cc1 [Example 11, (R)-2-((S)-(3-Amino-9-oxo-6,9-dihydroisothiazolo[5,4-f]quinazolin-7-yl)(hydroxy)methyl)-4-(1-(4-fluorophenyl)-5-methyl-1H-pyrazol-3-yl)morpholin-3-one] | 52.1 |
| N#Cc1ccc(-n2ccc(N3CCO[C@H]([C@@H](O)c4nc(=O)c5c(ccc6c(N)nsc65)[nH]4)C3=O)n2)cc1 [Example 12, 4-(3-((R)-2-((S)-(3-Amino-9-oxo-6,9-dihydroisothiazolo[5,4-f]quinazolin-7-yl)(hydroxy)methyl)-3-oxomorpholino)-1H-pyrazol-1-yl)benzonitrile] | 3.07 |
| N#Cc1ccc(-n2ccc(N3CCO[C@H]([C@@H](O)c4nc(=O)c5c(ccc6c(N)nsc65)[nH]4)C3=O)n2)cc1C(F)(F)F [Example 13, 4-(3-((R)-2-((S)-(3-Amino-9-oxo-6,9-dihydroisothiazolo[5,4-f]quinazolin-7-yl)(hydroxy)methyl)-3-oxomorpholino)-1H-pyrazol-1-yl)-2-(trifluoromethyl)benzonitrile] | 28.3 |
| Cc1cc(N2CCO[C@H]([C@@H](O)c3nc(=O)c4c(ccc5c(N)nsc54)[nH]3)C2=O)nn1C [Example 14, (R)-2-((S)-(3-Amino-9-oxo-6,9-dihydroisothiazolo[5,4-f]quinazolin-7-yl)(hydroxy)methyl)-4-(1,5-dimethyl-1H-pyrazol-3-yl)morpholin-3-one] | 43.7 |
| Nc1nsc2c1ccc1[nH]c([C@H](O)[C@H]3OCCN(c4ccn(C5CC5)n4)C3=O)nc(=O)c12 [Example 15, (R)-2-((S)-(3-Amino-9-oxo-6,9-dihydroisothiazolo[5,4-f]quinazolin-7-yl)(hydroxy)methyl)-4-(1-cyclopropyl-1H-pyrazol-3-yl)morpholin-3-one] | 39.8 |
| Cc1cc(N2CCO[C@H]([C@@H](O)c3nc(=O)c4c(ccc5c(N)nsc54)[nH]3)C2=O)nn1C1CCOCC1 [Example 16, (R)-2-((S)-(3-Amino-9-oxo-6,9-dihydroisothiazolo[5,4-f]quinazolin-7-yl)(hydroxy)methyl)-4-(5-methyl-1-(tetrahydro-2H-pyran-4-yl)-1H-pyrazol-3-yl)morpholin-3-one] | 31.9 |
| Nc1nsc2c1ccc1[nH]c([C@H](O)[C@H]3OCCN(c4cccc(C(F)(F)F)n4)C3=O)nc(=O)c12 [Example 17, (R)-2-((S)-(3-Amino-9-oxo-6,9-dihydroisothiazolo[5,4-f]quinazolin-7-yl)(hydroxy)methyl)-4-(6-(trifluoromethyl)pyridin-2-yl)morpholin-3-one] | 43.7 |
| Nc1nsc2c1ccc1[nH]c([C@H](O)[C@H]3OCCN(c4nc(C(F)(F)F)ccc4F)C3=O)nc(=O)c12 [Example 18, (R)-2-((S)-(3-Amino-9-oxo-6,9-dihydroisothiazolo[5,4-f]quinazolin-7-yl)(hydroxy)methyl)-4-(3-fluoro-6-(trifluoromethyl)pyridin-2-yl)morpholin-3-one] | 44.2 |
| Nc1nsc2c1ccc1[nH]c([C@H](O)[C@H]3OCCN(c4cccc(OC(F)F)n4)C3=O)nc(=O)c12 [Example 19, (R)-2-((S)-(3-Amino-9-oxo-6,9-dihydroisothiazolo[5,4-f]quinazolin-7-yl)(hydroxy)methyl)-4-(6-(difluoromethoxy)pyridin-2-yl)morpholin-3-one] | 83.3 |
